Results published in patent publication US9273043B2, “TRPV1 antagonists including dihydroxy substituent and uses thereof” (Purdue Pharma L.P., priority 2011, dated 2016).
Converted amounts (≈) assume the structure as drawn. Where two headings read alike, the source gives them in different places. Marks after values point to notes of the source that are not given here.

Tests used:
[1] = In vivo assay of body temperature increase (rectal body temperature); parameters: species or system rat; conditions: rats, oral, 10 mL/kg of 1 mg/mL in 0.5% methylcellulose; greatest ΔTb versus vehicle control at 0.5, 1 or 2 hrs
Excerpt: Hyperthermia or undesirable elevation in animal body temperature is known to be an undesirable side-effect accompanying the administration of certain TRPV1 antagonists (Gavva, “Body-temperature maintenance as the predominant function of the vanilloid receptor TRPV1,” Trends Pharmacol. Sci. 29(11):550-557 (2008)).
Test Animals: Selection of rats (Crl/SD rats, 7 weeks, male) was based on rectal body temperature measured during the morning of the day of dosing as described below. In addition, to minimize spontaneous, stress-induced increases in body temperature, rats were acclimated in advance to both the rectal measurement procedure and to being handled and dosed. All lodging and testing took place in animal care laboratories with constant room temperature and humidity. The rats were free to move and ingest food and water throughout. Each rat was coded with a colored line on the tail, housed in a separate cage, and permitted the normal range of movement. Immediately before each body temperature measurement, a rat was transferred to a measurement cage. To reduce stress which could influence its body temperature, each rat was covered with towels during the measurement. A thermistor probe was then carefully inserted into the rectum of each rat and left in place until the temperature reading on the digital display had stabilized; this value was recorded.
Assay: On the day before dosing, rectal body temperature was measured at 9:00, 10:00, 11:00, 12:30, 13:30, 14:30, and 15:30 o'clock to familiarize the rats with the measurement procedure prior to administration of the test or control treatments. The rats were also dosed by oral gavage without vehicle at 12:30 o'clock to acclimate and familiarize them with the handling and dosing procedure.
On the day of dosing, only rats with rectal body temperatures within the range of from 37.0° C. to 37.7° C. were selected for study. Rectal body temperatures were measured at 9:00, 10:00, and 11:00 o'clock. Rats were excluded from the study if either their rectal body temperature was over 37.9° C. at 10:00 o'clock or was outside the range of from 37.0° C. to 37.7° C. at 11:00 o'clock. The selected rats were divided into several groups based on their rectal body temperatures at 11:00 o'clock. Rectal body temperatures of the selected rats were measured again at 12:30 o'clock and any rat with a rectal body temperature of 38.0° C. or greater was also excluded from the study.
Following assignment to either a test or control group, a test compound or a control was administered to the rats. Each test compound was dissolved in a vehicle of 0.5% aqueous methylcellulose solution and the final concentration of the test compound was adjusted to 1 mg/mL. Each test compound was orally administered once at a dose of 10 mL/kg. The same volume of the control (vehicle only) was administered once to the control group. Rectal body temperatures were measured at the following time points: 0.5, 1, and 2 hrs after administration.
The body temperature increase (ΔTb) for each test compound was calculated by subtracting, at each time point, the average temperature of the control group from the average temperature of the group administered that test compound. The greatest ΔTb obtained for each test compound at any of the time points is shown in Table 11 below, along with the ΔTb of the control.

[2] = test system: FCA-induced inflammation of the rat hind paw; assay: Freund's complete adjuvant (FCA) model of inflammatory pain, paw withdrawal threshold; format: in vivo; conditions: rat FCA, 20 mg/kg
Description: Test Animals: Each experiment uses rats weighing between 200-260 g at the start of the experiment. The rats are group-housed and have free access to food and water at all times, except prior to oral administration of a Compound of Formula (I) when food is removed for 16 hours before dosing. A control group acts as a comparison to rats treated with a Compound of Formula (I). The control group is administered the vehicle for the Compound of Formula (I). The volume of vehicle administered to the control group is the same as the volume of carrier and Compound of Formula (I) administered to the test group.
Inflammatory Pain: To assess the actions of a Compound of Formula (I) for the treatment or prevention of inflammatory pain, the Freund's complete adjuvant (“FCA”) model of inflammatory pain was used. FCA-induced inflammation of the rat hind paw is associated with the development of persistent inflammatory mechanical hyperalgesia and provides reliable prediction of the anti-hyperalgesic action of clinically useful analgesic drugs (Bartho et al., “Involvement of capsaicin-sensitive neurons in hyperalgesia and enhanced opioid antinociception in inflammation,” Naunyn-Schmiedeberg's Archives of Pharmacol. 342:666-670 (1990)). The right hind paw of each male, 6-week old Jcl:SD rat was administered a 50 μL intraplantar injection of 50% FCA (Sigma-Aldrich). 24 hour post-injection, the animal was assessed for response to noxious mechanical stimuli by determining the PWT, as described below. Rats were then administered a single injection of 0.1, 0.3, 1, 3, or 10 mg/kg of either the product prepared with Compound A155(a) and fumaric acid as described in Example 10, 20 mg/kg of an ibuprofen control (EMD Millipore Chemicals, Inc.), or vehicle as a control (0.5% weight/volume methylcellulose (400cP, Wako Pure Chemical Industries, Ltd., Osaka, Japan)/aqueous solution). […] Responses to noxious mechanical stimuli were then determined 1, 3, 5, and 7 hours post-administration. Percentage reversal of hyperalgesia for each animal was defined as: […]
With the exception of the controls (i.e., ibuprofen, vehicle) where the student's t-test was used, Dunnett's test was conducted for the % reversal. In either instance, values with p<0.05 were considered to be statistically significant. The % reversal results for administration of the product prepared with Compound A155(a) and fumaric acid as described in Example 10 and the respective controls are presented in Table 7.
Response to Mechanical Stimuli as an Assessment of Mechanical Hyperalgesia: The paw pressure assay was used to assess mechanical hyperalgesia. For this assay, hind paw withdrawal thresholds (PWT) to a noxious mechanical stimulus were determined using an analgesymeter (Model 37215, commercially available from Ugo Basile of Italy) as described in Stein, “Unilateral Inflammation of the Hindpaw in Rats as a Model of Prolonged Noxious Stimulation: Alterations in Behavior and Nociceptive Thresholds,” Pharmacol. Biochem. and Behavior 31:451-455 (1988). The maximum weight that could be applied to the hind paw was set at 250 g and the end point was taken as complete withdrawal of the paw. PWT was determined once for each rat at each time point and either only the affected (ipsilateral) paw was tested, or both the ipsilateral and contralateral (non-injured) paw were tested.

[3] = Aqueous solubility at pH 1.2 and pH 6.8; format: physicochemical; conditions: aqueous solution
[4] = pH 1.2, read-out: aqueous solubility at pH 1.2
[5] = pH 6.8, read-out: aqueous solubility at pH 6.8

In the case of `C[C@@H]1CN(c2ncc([C@H](O)CO)cc2F)CCN1C(=O)Nc1nc2ccccc2s1` [DB], the “ΔTb, body temperature increase” value [1] was 1.1 °C.

With `CC(C)Cc1ccc(C(C)C(=O)O)cc1` (stereo not drawn) [Ibuprofen, ibuprofen, reference compound] the “% Reversal [mean]” value ([2]; 1 h after administration) was 28.6^†† %, the “% Reversal [mean]” value ([2]; 1 h after administration, listed as ibuprofen) was 28.6% and the “% Reversal [mean]” value ([2]; 3 h after administration) was 41.5^†† %. The “% Reversal [mean]” value ([2]; 3 h after administration, listed as ibuprofen) was 41.5%, the “% Reversal [mean]” value ([2]; 5 h after administration) was 39.2^†† % and the “% Reversal [mean]” value ([2]; 5 h after administration, listed as ibuprofen) was 39.2%. For the same molecule, the “% Reversal [mean]” value ([2]; 7 h after administration) was 32.5^†† % and the “% Reversal [mean]” value ([2]; 7 h after administration, listed as ibuprofen) was 32.5%.

Molecule `O=C(Nc1ccc(C(F)(F)F)cc1)N1CC=C(c2ncccc2Cl)CC1` [Compound 200] has a solubility [3, 4] of less than 0.1 µM.

With `C[C@H]1CN(c2ncc([C@H](O)CO)cc2Cl)CCN1C(=O)Nc1nc2ccc(F)cc2s1` [AA] the “ΔTb, body temperature increase” value [1] was 0.8 °C.

With `C[C@@H]1CN(c2ncc([C@H](O)CO)cc2Cl)CCN1C(=O)Nc1nc2ccc(F)cc2s1` [DE] the “ΔTb, body temperature increase” value [1] was 1.3 °C.

`O=C(Nc1ccc(OC(F)(F)F)cc1)N1CC=C(c2ncccc2Cl)CC1` [Compound 214] showed a solubility [3, 4] greater than 50 µM and a solubility [3, 5] of 1.8 µM (≈ 0.716 µg/mL).

For `O=C(Nc1nc2ccc(F)cc2s1)N1CCN(c2ncc([C@H](O)CO)cc2Cl)CC1` [DD], the “ΔTb, body temperature increase” value [1] was 1.0 °C.

With `COc1ccc2nc(NC(=O)N3CCN(c4ncc([C@H](O)CO)cc4Cl)CC3)sc2c1` [DP] the “ΔTb, body temperature increase” value [1] was 1.2 °C.

With `O=C(Nc1ccc(C(F)(F)F)c(Cl)c1)N1CC=C(c2ncccc2F)CC1` [Compound 215] the solubility [3, 4] was 9.6 µM (≈ 3.84 µg/mL) and the solubility [3, 5] was 0.6 µM (≈ 0.24 µg/mL).

In the case of `C[C@H]1CN(C(=O)Nc2nc3ccc(F)cc3s2)CCN1c1ncc([C@H](O)CO)cc1F` [AD], the “ΔTb, body temperature increase” value [1] was 0.6 °C.

In the case of `COc1ccc2nc(NC(=O)N3CCN(c4ncc([C@H](O)CO)cc4F)C[C@H]3C)sc2c1` [DO], the “ΔTb, body temperature increase” value [1] was 1.1 °C.

In the case of `C[C@@H]1CN(c2ncc([C@H](O)CO)cc2F)CCN1C(=O)Nc1nc2cc(F)ccc2s1` [DK], the “ΔTb, body temperature increase” value [1] was 0.7 °C.

In the case of `Cc1cc2nc(NC(=O)N3CCN(c4ncc([C@H](O)CO)cc4C)CC3)sc2cc1C` [DM], the “ΔTb, body temperature increase” value [1] was 0.9 °C.

With `C[C@H]1CN(c2ncc([C@H](O)CO)cc2F)CCN1C(=O)Nc1nc2ccc(F)cc2s1` [AC] the “ΔTb, body temperature increase” value [1] was 0.7 °C.

In the case of `C[C@@H]1CN(c2ncc([C@H](O)CO)cc2C(F)(F)F)CCN1C(=O)Nc1nc2ccccc2s1` [DC], the “ΔTb, body temperature increase” value [1] was 1.0 °C.

With `Cc1cc2nc(NC(=O)N3CCN(c4ncc([C@H](O)CO)cc4F)C[C@H]3C)sc2cc1C` [DL] the “ΔTb, body temperature increase” value [1] was 0.9 °C.

For `O=C(Nc1ccc(OC(F)(F)F)cc1)N1CCC(F)(c2ncccc2Cl)CC1` [Compound 211], the solubility [3, 4] was 1.3 µM (≈ 0.543 µg/mL) and the solubility [3, 5] was 0.4 µM (≈ 0.167 µg/mL).

With `C[C@@H]1CN(c2ncc([C@H](O)CO)cc2C(F)(F)F)CCN1C(=O)Nc1nc2ccc(F)cc2s1` [DI] the “ΔTb, body temperature increase” value [1] was 0.8 °C.

For `C[C@@H]1CN(c2ncc([C@H](O)CO)cc2Cl)CCN1C(=O)Nc1nc2ccccc2s1` [DA], the “ΔTb, body temperature increase” value [1] was 0.9 °C.

For `O=C(Nc1nc2ccc(F)cc2s1)N1CCN(c2ncc([C@H](O)CO)cc2F)CC1` [DF], the “ΔTb, body temperature increase” value [1] was 0.5 °C.

In the case of `C[C@H]1CN(c2ncc([C@H](O)CO)cc2F)CCN1C(=O)Nc1nc2ccc(Cl)cc2s1` [AB], the “ΔTb, body temperature increase” value [1] was 0.6 °C.

With `O=C(Nc1ccc(C(F)(F)F)cc1)N1CC=C(c2ncccc2F)CC1` [Compound 208] the “aqueous solubility at pH 6.8” value ([3]; pH 6.8) was “insoluble”.

Work on `O=C(Nc1ccc(C(F)(F)F)c(F)c1)N1CCC(F)(c2ncccc2F)CC1` [Compound 212] yielded a solubility [3, 4] of 10.3 µM (≈ 4.15 µg/mL) and a solubility [3, 5] of 1.9 µM (≈ 0.766 µg/mL).

For `C[C@@H]1CN(c2ncc([C@H](O)CO)cc2F)CCN1C(=O)Nc1nc2ccc(F)cc2s1` [DG], the “ΔTb, body temperature increase” value [1] was 1.0 °C.

For `Cc1cc([C@H](O)CO)cnc1N1CCN(C(=O)Nc2nc3ccc(Cl)cc3s2)CC1` [DN], the “ΔTb, body temperature increase” value [1] was 0.8 °C.

`O=C(Nc1ccc(S(=O)(=O)C(F)(F)F)cc1)N1CCC(F)(c2ncccc2Cl)CC1` [Compound 210] gave a solubility [3, 4] of 2.0 µM (≈ 0.932 µg/mL) and a solubility [3, 5] of 0.4 µM (≈ 0.186 µg/mL).

In the case of `C[C@H](O)[C@@H](O)c1cnc(N2CCN(C(=O)Nc3nc4ccc(F)cc4s3)[C@H](C)C2)c(Cl)c1` [BA], the “ΔTb, body temperature increase” value [1] was 0.9 °C.

For `Cc1ccc2nc(NC(=O)N3CCN(c4ncc([C@H](O)CO)cc4Cl)CC3)sc2c1` [DJ], the “ΔTb, body temperature increase” value [1] was 0.9 °C.

With `O=C(Nc1ccc(C(F)(F)F)cc1)N1CCC(F)(c2ncccc2Cl)CC1` [Compound 203] the “aqueous solubility at pH 6.8” value ([3]; pH 6.8) was “insoluble”.

`O=C(Nc1ccc(C(F)(F)F)c(F)c1)N1CCC(F)(c2ncccc2Cl)CC1` [Compound 209] showed a solubility [3, 4] of 9.3 µM (≈ 3.9 µg/mL) and a solubility [3, 5] of 1.0 µM (≈ 0.42 µg/mL).

Work on `O=C(Nc1ccc(C(F)(F)F)c(F)c1)N1CC=C(c2ncccc2Cl)CC1` [Compound 213] yielded a solubility [3, 4] of 39.6 µM (≈ 15.8 µg/mL) and a solubility [3, 5] of 0.8 µM (≈ 0.32 µg/mL).

In the case of `O=C(Nc1ccc(C(F)(F)F)cc1)N1CCC(F)(c2ncccc2F)CC1` [Compound 207], the “aqueous solubility at pH 6.8” value ([3]; pH 6.8) was “insoluble”.

With `O=C(Nc1nc2ccc(F)cc2s1)N1CCN(c2ncc([C@H](O)CO)cc2C(F)(F)F)CC1` [DH] the “ΔTb, body temperature increase” value [1] was 0.9 °C.

For `C[C@H](O)[C@@H](O)c1cnc(N2CCN(C(=O)Nc3nc4ccc(F)cc4s3)[C@H](C)C2)c(F)c1` [BC], the “ΔTb, body temperature increase” value [1] was 0.7 °C.
